Data as given in ChEMBL document CHEMBL1201862, “PubChem BioAssay data set” (2004).
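Assay format: 96-well plates, 48-hour exposure. The concentration for 50% growth inhibition is given as GI50.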 Calls of active or inactive are those of the source. No stated cut-off is given here; in the data, active = GI50 up to about 1.1 µM and inactive = higher.

Tests used:
Assay in all cases: inhibition of tumour cell growth, NCI panel, 48 h
[1] = tested on: DLD-1
[2] = tested on: KM-20L2
[3] = tested on: DMS-114
[4] = tested on: DMS-273
[5] = tested on: M19-MEL
[6] = tested on: SNB-78
[7] = tested on: XF498
[8] = tested on: HOP-18

Measured: GI50

CNS(=O)(=O)NN(C)S(=O)(=O)c1ccccc1
inactive: [1] > 100 µM | [2] > 100 µM | [3] > 100 µM | [4] > 100 µM | [5] > 100 µM

C#C[C@]1(O)CCC2C3CCc4cc(Oc5nc(F)nc(-n6c(C)nc7cc8ccccc8cc76)n5)ccc4C3CCC21C (some centres undefined)
inactive: [1] 53.3 µM | [6] 75.3 µM | [2] 32.4 µM | [7] 61 µM | [3] 20.6 µM | [4] 20.8 µM | [5] 37.1 µM | [8] 30.6 µM

C/C=C(\N=C=S)C(=O)OC1C(COC(C)=O)OC([C@]2(O)CC(=O)C(N)=C(C(=O)O)C2=O)C(O)C1OC1CC(OC)C(O)([C@@H](C)OC(=O)[C@@H](C)CC)C(C)O1 (some centres undefined)
inactive: [1] 10.9 µM | [6] 5.21 µM | [2] 6.92 µM | [7] 2.49 µM | [3] 6.68 µM | [4] 16.3 µM | [5] 2.6 µM | [8] 16.8 µM

O=C(O)COc1ccc(C(=O)/C(SS/C(C(=O)c2ccc(OCC(=O)O)c(Cl)c2Cl)=C2\C=C(c3ccc(F)cc3)SS2)=C2/C=C(c3ccc(F)cc3)SS2)c(Cl)c1Cl
inactive: [1] 11.2 µM | [6] 6.08 µM | [2] 30 µM | [7] 5.22 µM | [3] 3.28 µM | [4] 13.6 µM | [5] 13.2 µM | [8] 14.7 µM

CC1=C(C(=O)Nc2ccccc2)C(c2ccccc2)C(C(=O)Nc2ccccc2)=C(C)N1
inactive: [1] 52.7 µM | [6] > 100 µM | [2] 25.2 µM | [3] 19.2 µM | [4] 47.4 µM | [5] 28.9 µM | [8] > 100 µM

c1cnc2c(c1)-n1cccc1C1(CCOCC1)NN2
inactive: [1] > 100 µM | [2] > 100 µM | [7] > 100 µM | [3] > 100 µM | [4] > 100 µM | [5] > 100 µM | [8] > 100 µM

CCOC(=O)C(=O)Nc1ccc(Cl)cc1C
inactive: [1] > 100 µM | [6] > 100 µM | [2] > 100 µM | [7] > 100 µM | [3] > 100 µM | [4] > 100 µM | [5] > 100 µM | [8] > 100 µM

CN1C(=O)CC2(C)c3cc(O)cc(Br)c3N(C)C12 (centres undefined)
inactive: [6] > 100 µM | [2] > 100 µM | [7] > 100 µM | [3] > 100 µM | [5] > 100 µM | [8] 31.6 µM

Cc1ccc(NC(=O)C2C(=O)N(c3ccc(C)cc3)C(=O)/C2=N\NC(N)=S)cc1 (centres undefined)
inactive: [6] > 100 µM | [2] > 100 µM | [7] > 100 µM | [3] > 100 µM | [4] > 100 µM | [5] > 100 µM | [8] > 100 µM

CCCCCCCCCCCCC(Br)C(=O)SCCNC(=O)CCNC(=O)[C@@H](O)C(C)(C)COP(=O)(O)OP(=O)(O)OCC1OC(n2cnc3c(N)ncnc32)C(O)C1OP(=O)(O)O (some centres undefined)
inactive: [1] > 56.5 µM | [6] > 56.5 µM | [2] > 56.5 µM | [7] > 56.5 µM | [3] > 56.5 µM | [4] > 56.5 µM | [5] > 56.5 µM | [8] > 56.5 µM

CC12CO[C@@](C)(CC(S(=O)(=O)c3ccccc3)C1)O2 (some centres undefined)
inactive: [1] > 100 µM | [6] > 100 µM | [2] > 100 µM | [3] > 100 µM | [4] > 100 µM | [5] > 100 µM | [8] > 100 µM

C=C1C(=O)C23C(CC(OC(C)=O)C1[C@@H]2OC(C)=O)C1(C)C(OC(C)=O)CCC(C)(C)C1C[C@@H]3OC(C)=O (some centres undefined)
inactive: [6] 1.53 µM | [2] 1.72 µM | [3] 1.14 µM | [4] 1.68 µM | [5] 1.75 µM
